Values quoted from earlier work, collected in patent US20050039221A1, “Phenotypic effects of ubiquinone deficiencies and methods of screening thereof” (priority 2001, published 2005).

Assays:
complex II = settings: synthetic DMQ2
complex I = settings: synthetic DMQ2
[1] = rodents

| Uptake of dietary UQ, share of the initially ingested ubiquinone [1] | SMILES | Function as co-factor for electron transport from complex II (complex II) | Function as co-factor for electron transport from complex I (complex I) |
| --- | --- | --- | --- |
| – | COC1=CC(=O)C(C)=C(C/C=C(\C)CCC=C(C)C)C1=O [DMQ2] | more poorly | can function as a co-factor |
| 2-3% | COC1=C(OC)C(=O)C(C/C=C(\C)CC/C=C(\C)CC/C=C(\C)CC/C=C(\C)CC/C=C(\C)CC/C=C(\C)CC/C=C(\C)CC/C=C(\C)CC/C=C(\C)CCC=C(C)C)=C(C)C1=O [UQ, Ubiquinone] | – | – |
